Assay results: patent US11649236B2, “Polycyclic carbamoylpyridone derivative” (Shionogi & Co., Ltd., priority 2018, dated 2023)

Columns and labels:
[1] = test system: HIV mutant strain 3 (E92Q/E138K/G140S/Q148H); test: Resistance evaluation test (HeLa-CD4 reporter), mutant strain 3; type: cell-based; conditions: FC=EC50 of mutant strain/EC50 of wild strain, HeLa-CD4 cells
Experimental: (§1) Serial dilutions of a test sample were prepared in a96-well microplate (50 μL/well). 2.5×10^5 cells/mL of a HeLa-CD4 cell suspension was dispensed at 100 μL/well to the plate containing the test sample. Then, an HIV virus solution (wild strain and mutant strain) was dispensed at 50 μL/well. The plate was mixed with a plate mixer and cultured for 3 days in a CO2 incubator. The culture supernatant in each well was removed by suction. A cell lysis buffer in a reporter assay kit was dispensed at 100 μL/well, and the plate was frozen in a freezer (−80° C.). The plate frozen in a freezer was thawed at room temperature, then mixed with a plate mixer, and centrifuged at 1,200 rpm for 5 minutes. The supernatant of each well was dispensed at 20 μL/well to a 96-well microplate (BLACK). A chemiluminescent reagent in the reporter assay kit was dispensed at 100 μL/well and reacted at room temperature for approximately 1 hour. Then, luminescence intensity was measured using MicroBeta TRILUX. […] FC=EC50 of mutant strain/EC50 of wild strain (Results) FC for the mutant strain 1 (E138K/G140S/Q148H/N155H) and FC for the mutant strain 2 (E92Q/E138T/G140S/Q148H) are shown in the table.

Metabolic stability test = type: in vitro ADME, human; parameters: key: % remaining vs amount at 0 min (=100%); conditions: compound 0.5 μmol/L, human liver microsomes 0.5 mg protein/mL, NADPH, 37° C., 30 minutes; amount at 0 minutes defined as 100%
Experimental: Commercially available pooled human liver microsomes were reacted with the compound of the present invention for a certain time. A residual rate was calculated by the comparison between the reacted sample and an unreacted sample to evaluate the degree at which the compound of the present invention is metabolized in the liver. A reaction was performed (oxidative reaction) at 37° C. for 0 minutes or 30 minutes in the presence of 1 mmol/L NADPH in 0.2 mL of a buffer (50 mmol/L Tris-HCl pH 7.4, 150 mmol/L potassium chloride, 10 mmol/L magnesium chloride) containing 0.5 mg protein/mL of human liver microsomes. After the reaction, 50 μL of the reaction solution was added to 100 μL of a solution of methanol/acetonitrile=1/1 (v/v) and mixed, and the mixture was centrifuged at 3000 rpm for 15 minutes. The compound of the present invention in the centrifugation supernatant was quantified by LC/MS/MS or solid-phase extraction (SPE)/MS. The amount of the compound of the present invention remaining after the reaction was calculated with the amount of the compound at 0 minutes of the reaction defined as 100%.

[2] = test system: HIV mutant strain 2 (E92Q/E138T/G140S/Q148H); test: Resistance evaluation test (HeLa-CD4 reporter), mutant strain 2; type: cell-based; conditions: FC=EC50 of mutant strain/EC50 of wild strain, HeLa-CD4 cells
Experimental: as §1

HIV = test: Anti-HIV activity (MT-4 cells, MTT); type: cell-based; conditions: Human immunodeficiency virus 1, MT4, 96 h, cultured 4 days
How it was run: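 MT-4 cells (2.5×10^5 cells/mL) mixed with serial dilutions of test sample and HIV, cultured 4 days in CO2 incubator. MTT added for 1 h, cells lysed, absorbance read at 560 nm and 690 nm.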

[3] = target: Voltage gated sodium channel (Nav 1.5 channel) (Homo sapiens, UniProt Q14524); conditions: pH 7.4
Excerpt: For the purpose of assessing risk of arrhythmogenesis of the compound of the present invention, effects of the compound of the present invention on Na^+ current (INa), which plays an important role in the depolarization process of myocardium, was studied using HEK cells expressing Voltage gated sodium channel (Nav 1.5 channel) encoded by SCN5A gene. A cell is retained at a membrane potential of −100 mV by the whole cell patch clamp method using an automated patch clamp system (QPatch; Sophion Bioscience A/S), then INa induced by depolarization stimulation at −10 mV for 20 milliseconds, was recorded. […] From the obtained INa, an absolute value of the maximum peak current was measured based on the current value at the resting membrane potential using analysis software (QPatch Assay software; Sophion Bioscience A/S). The maximum peak current at the time of the application of the compound of the present invention with respect to the maximum peak current at the time of the application of the vehicle was further calculated to evaluate the influence of the compound of the present invention on INa.

[4] = Clearance evaluation test; type: in vivo; conditions: rat, plasma, 1 umol/kg, rats, intravenous 1 μmol/kg
Excerpt: Experimental Material and Method (1) Animals used: rats were used. (2) Rearing conditions: the rats were allowed to freely take solid feed and sterilized tap water. (3) Dose and grouping setting: a predetermined dose was intravenously administered. Groups were set as follows: Intravenous administration: 1 μmol/kg (n=2) (4) Preparation of dosing solution: the test sample was solubilized using a solvent of dimethyl sulfoxide/propylene glycol=1/1 and administered. (5) Administration method: the test sample was administered to the tail vein through a syringe with an injection needle. (6) Evaluation item: blood was collected over time, and the concentration of the compound of the present invention in plasma was measured using LC/MS/MS. (7) Statistical analysis: total body clearance (CLtot) and elimination half-life (t½) were calculated as to change in the concentration of the compound of the present invention in plasma by the moment analysis method.

[5] = test system: HIV mutant strain (T97A/E138T/G140S/Q148H); test: Resistance evaluation test (HeLa-CD4 reporter), mutant strain T97A/E138T/G140S/Q148H; type: cell-based; conditions: FC=EC50 of mutant strain/EC50 of wild strain; HeLa-CD4 cells
[6] = test system: HIV mutant strain 1 (E138K/G140S/Q148H/N155H); test: Resistance evaluation test (HeLa-CD4 reporter), mutant strain 1; type: cell-based; conditions: FC=EC50 of mutant strain/EC50 of wild strain, HeLa-CD4 cells
Experimental: as §1

Voltage gated sodium channel (Nav 1.5 channel), sequence (Q14524 whole entry): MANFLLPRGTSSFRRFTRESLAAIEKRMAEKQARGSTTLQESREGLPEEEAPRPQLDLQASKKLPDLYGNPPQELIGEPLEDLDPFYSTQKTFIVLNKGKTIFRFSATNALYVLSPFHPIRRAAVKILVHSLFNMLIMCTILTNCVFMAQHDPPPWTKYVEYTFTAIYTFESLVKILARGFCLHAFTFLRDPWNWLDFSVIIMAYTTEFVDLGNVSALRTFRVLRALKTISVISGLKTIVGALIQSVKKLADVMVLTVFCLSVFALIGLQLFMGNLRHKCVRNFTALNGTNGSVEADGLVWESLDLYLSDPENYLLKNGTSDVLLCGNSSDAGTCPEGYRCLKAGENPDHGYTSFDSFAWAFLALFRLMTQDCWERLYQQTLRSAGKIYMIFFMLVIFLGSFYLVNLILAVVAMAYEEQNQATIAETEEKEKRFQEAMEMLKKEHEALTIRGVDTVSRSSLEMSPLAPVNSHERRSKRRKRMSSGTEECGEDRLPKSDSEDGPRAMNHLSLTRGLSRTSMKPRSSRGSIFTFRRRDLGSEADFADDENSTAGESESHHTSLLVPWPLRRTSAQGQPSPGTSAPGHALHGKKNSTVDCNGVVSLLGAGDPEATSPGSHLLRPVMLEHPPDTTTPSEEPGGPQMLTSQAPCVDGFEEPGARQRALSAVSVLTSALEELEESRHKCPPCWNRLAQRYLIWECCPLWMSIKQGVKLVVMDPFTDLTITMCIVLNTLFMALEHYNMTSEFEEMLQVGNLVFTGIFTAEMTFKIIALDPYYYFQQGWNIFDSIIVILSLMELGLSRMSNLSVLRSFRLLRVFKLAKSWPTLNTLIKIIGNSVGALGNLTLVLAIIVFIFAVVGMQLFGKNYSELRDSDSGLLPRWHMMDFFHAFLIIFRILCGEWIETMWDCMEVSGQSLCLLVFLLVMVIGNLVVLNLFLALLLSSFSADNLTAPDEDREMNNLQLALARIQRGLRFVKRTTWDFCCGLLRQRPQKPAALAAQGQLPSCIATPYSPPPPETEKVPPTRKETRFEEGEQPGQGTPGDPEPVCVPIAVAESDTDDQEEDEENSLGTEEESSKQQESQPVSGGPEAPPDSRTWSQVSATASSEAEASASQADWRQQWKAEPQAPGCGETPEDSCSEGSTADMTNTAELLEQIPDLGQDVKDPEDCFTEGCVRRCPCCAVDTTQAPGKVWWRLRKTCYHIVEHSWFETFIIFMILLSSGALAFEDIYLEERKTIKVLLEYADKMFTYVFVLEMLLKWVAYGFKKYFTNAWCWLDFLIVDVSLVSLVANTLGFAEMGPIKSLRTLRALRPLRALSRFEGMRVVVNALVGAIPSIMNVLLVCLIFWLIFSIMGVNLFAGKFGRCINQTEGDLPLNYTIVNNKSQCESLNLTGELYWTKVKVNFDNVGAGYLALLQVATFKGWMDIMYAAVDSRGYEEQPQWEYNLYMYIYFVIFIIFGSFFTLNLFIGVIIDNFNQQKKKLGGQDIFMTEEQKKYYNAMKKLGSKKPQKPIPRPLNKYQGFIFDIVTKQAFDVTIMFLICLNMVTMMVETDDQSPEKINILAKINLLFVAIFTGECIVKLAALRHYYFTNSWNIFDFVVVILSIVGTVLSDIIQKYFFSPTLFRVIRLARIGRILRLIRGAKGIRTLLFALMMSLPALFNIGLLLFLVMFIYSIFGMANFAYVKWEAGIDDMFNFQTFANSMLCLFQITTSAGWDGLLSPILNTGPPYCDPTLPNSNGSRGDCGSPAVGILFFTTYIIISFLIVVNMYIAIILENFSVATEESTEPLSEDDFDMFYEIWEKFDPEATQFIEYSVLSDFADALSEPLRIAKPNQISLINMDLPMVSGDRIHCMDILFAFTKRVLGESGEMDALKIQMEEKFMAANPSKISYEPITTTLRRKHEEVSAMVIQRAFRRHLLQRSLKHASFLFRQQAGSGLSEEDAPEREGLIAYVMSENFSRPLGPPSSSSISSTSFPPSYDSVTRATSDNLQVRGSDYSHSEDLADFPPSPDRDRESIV

CN1C(=O)c2c(O)c(=O)c(C(=O)NCc3ccc(F)cc3F)cn2N2CCCC[C@@H]12 [Compound I-015]
FC for the mutant strain 3 [1]: 7.7
residual rate (Metabolic stability test): 103
FC mutant strain 2 [2]: 18
EC50 (HIV): 3.6 nM
maximum peak current (INa) with compound with respect to vehicle [3]: 92.1%
half-life ([4]; read-out: elimination half-life (t½) (converted)): 12.3 h
clearance ([4]; read-out: total body clearance (CLtot)): 0.111 mL/min/kg
FC for the mutant strain (T97A/E138T/G140S/Q148H) [5]: 10
FC mutant strain 1 [6]: 51
